Format in all cases: in vivo
Assay [1] concerns large crabgrass (Digitaria sanquinalis L.). As to the kind of experiment: Test Example 28: pot, soil treatment, metobromuron + pendimethalin. The following applies: 62.5 g/ha, soil treatment, pot, 27th day after treatment, read-out: Growth inhibition rate of large crabgrass (%) Measured value. From the text:
(§1) When the herbicidal activity in a case where two active ingredients are combined, is larger than the simple sum of the respective herbicidal activities of the two active ingredients (the expected activity), it is called a synergistic effect. The activity expected by the combination of two active ingredients can be calculated as follows (Colby S. R., “Weed”, vol. 15, p. 20-22, 1967). E=α+β−(α×β[…]) where α: growth inhibition rate when treated with x (g/ha) of herbicide X, • β: growth inhibition rate when treated with y (g/ha) of herbicide Y, • E: growth inhibition rate expected when treated with x (g/ha) of herbicide X and y (g/ha) of herbicide Y.
(§2) On the 19th day after treatment, the state of growth of barnyardgrass was visually observed and evaluated in accordance with the following standards. The growth inhibition rate (%) [measured value] and the growth inhibition rate (%) [calculated value] calculated by the Colby's method, are shown in Table 2.
(§3) Growth inhibition rate (%)=inhibition rate) (%) of 0 (equivalent to the non-treated area) to 100 (complete kill)
Soil was put into a 1/300,000 ha pot, and seeds of large crabgrass (Digitaria sanquinalis L.) were sown. On the day after seeding, predetermined amounts of SC containing metobromuron as active ingredient (same as in Test Example 1) and EC containing pendimethalin as active ingredient (same as in Test Example 10) were diluted with water corresponding to 1,000 L per hectare and applied for soil treatment.
On the 27th day after treatment, the state of growth of large crabgrass was visually observed and evaluated in the same manner as in Test Example 1.

A further assay has as its system polygonaceae weeds. As to the kind of experiment: Test Example 10: corn field, soil treatment, metobromuron + pendimethalin. The settings on record: 600 g/ha; soil treatment, corn field; 49th day after treatment; read-out: Growth inhibition rate of Polygonaceae weeds (%) Measured value.
From the text: as §1, §2
(§4) Growth inhibition rate (%)=inhibition rate) (%) of 0 (equivalent to the non-treated area) to 100 (complete kill) […]
On the 49th day after treatment, the state of growth of polygonaceae weeds which occurred naturally, was visually observed and evaluated in the same manner as in Test Example 1, The results are shown in Table 11.

Assay [2] deals with large crabgrass (Diqitaria sanquinalis L.). As to the kind of experiment: Test Example 11: corn field, foliar treatment, metobromuron + nicosulfuron. The settings on record: Digitaria sanguinalis; 30 g/ha; foliar treatment at 1.5 to 2.0 leaf stage, corn field; 30th day after treatment; read-out: Growth inhibition rate of large crabgrass (%) Measured value.
From the text: as §1, §2, §4
On the 30th day after treatment, the state of growth of large crabgrass was visually observed and evaluated in the same manner as in Test Example 1.

For assay [3], the system named is common purslane (Portulaca oleracea L.). As to the kind of experiment: Test Example 12: corn field, soil treatment, metobromuron + nicosulfuron. The following applies: 30 g/ha, soil treatment, corn field, 30th day after treatment, read-out: Growth inhibition rate of common purslane (%) Measured value.
From the text: as §1, §2, §4
On the 30th day after treatment, the state of growth of common purslane (Portulaca oleracea L.) which occurred naturally, was visually observed and evaluated in the same manner as in Test Example 1.

Assay [4] relates to Nepalese Smartweed (Persicaria nepalensis (Meisn.) H. Gross). As to the kind of experiment: Test Example 6: adzuki bean field, soil treatment, metobromuron + S-metolachlor. The settings on record: 1000 g/ha, soil treatment, adzuki bean field, 39th day after treatment, read-out: Growth inhibition rate of Nepalese Smartweed (%) Measured value.
From the text: as §1, §2, §3
In an adzuki bean agricultural field (9.6 square meters per one test section), predetermined amounts of SC containing metobromuron as active ingredient (same as in Test Example 1) and EC containing S-metolachlor as active ingredient (same as in Test Example 2) were diluted with water corresponding to 1,000 L per hectare and applied for soil treatment, prior to germination of adzuki bean and weeds.
On the 39th day after treatment, the state of growth of Nepalese Smartweed (Persicaria nepalensis (Meisn.) H. Gross) which occurred naturally, was visually observed and evaluated in the same manner as in Test Example 1.

For assay [5], the system named is common lambsquarters (Chenopodium album L.). As to the kind of experiment: Test Example 8: corn field, soil treatment, metobromuron + S-metolachlor. The settings on record: 1000 g/ha, soil treatment, corn field, 28th day after treatment, read-out: Growth inhibition rate of common lambsquarters (%) Measured value.
From the text: as §1, §2, §4
On the 28th day after treatment, the state of growth of common lambsquarters (Chenopodium album L.) which occurred naturally, was visually observed and evaluated in the same manner as in Test Example 1.

For assay [6], the system named is Nepalese Smartweed (Persicaria nepalensis (Meisn.) H. Gross). As to the kind of experiment: Test Example 3: soybean field, soil treatment, metobromuron + S-metolachlor. The settings on record: 1000 g/ha, soil treatment, soybean field, 50th day after treatment, read-out: Growth inhibition rate of Nepalese Smartweed (%) Measured value.
From the text: as §1, §2, §4
On the 50th day after treatment, the state of growth of Nepalese Smartweed (Persicaria nepalensis (Meisn.) H. Gross) which occurred naturally, was visually observed and evaluated in the same manner as in Test Example 1.

The subject of assay [7] is spotted knotweed (Polygonum lapathifolium L.). As to the kind of experiment: Test Example 2: soybean field, soil treatment, metobromuron + S-metolachlor. The following applies: Persicaria lapathifolia; 1000 g/ha; soil treatment, soybean field; 50th day after treatment; read-out: Growth inhibition rate of spotted knotweed (%) Measured value.
From the text: as §1, §2, §4
On the 50th day after treatment, the state of growth of spotted knotweed was visually observed and evaluated in the same manner as in Test Example 1.

Assay [8] concerns redroot pigweed (Amaranthus retroflexus L.). As to the kind of experiment: Test Example 9: corn field, soil treatment, metobromuron + S-metolachlor. The following applies: 1000 g/ha, soil treatment, corn field, 49th day after treatment, read-out: Growth inhibition rate of redroot pigweed (%) Measured value.
From the text: as §1, §2, §4
On the 49th day after treatment, the state of growth of redroot pigweed (Amaranthus retroflexus L.) which occurred naturally, was visually observed and evaluated in the same manner as in Test Example 1.

Assay [9] concerns common lambsquarters (Chenopodium album L.). As to the kind of experiment: Test Example 20: pot, soil treatment, metobromuron + chlorpropham. The settings on record: soil treatment, pot, 26th day after treatment, read-out: Growth inhibition rate of common lambsquarters (%) Measured value.
From the text: as §1, §2, §3
(§5) Soil was put into a 1/300,000 ha pot, and seeds of barnyardgrass (Echinochloa crus-galli L.) were sown. On the day after seeding, predetermined amounts of SC containing metobromuron as active ingredient (same as in Test Example 1) and EC containing chlorpropham as active ingredient (same as in Test Example 1) were diluted with water corresponding to 1,000 L per hectare and applied for soil treatment.
(§6) On the 26th day after treatment, the state of growth of barnyardgrass was visually observed and evaluated in the same manner as in Test Example 1.
The test was carried out in the same manner as in Test Example 18 except that barnyardgrass (Echinochloa crus-galli L.) was changed to common lambsquarters (Chenopodium album L.), to obtain the results as shown in Table 21.

The test system of assay [10] is annual bluegrass (Poa annua L.). As to the kind of experiment: Test Example 19: pot, soil treatment, metobromuron + chlorpropham. The following applies: 250 g/ha, soil treatment, pot, 26th day after treatment, read-out: Growth inhibition rate of annual bluegrass (%) Measured value.
In assay [11] the test system is barnyardgrass (Echinochloa crus-galli L.). As to the kind of experiment: Test Example 18: pot, soil treatment, metobromuron + chlorpropham. The settings on record: 500 g/ha, soil treatment, pot, 26th day after treatment, read-out: Growth inhibition rate of barnyardgrass (%) Measured value.
From the text: as §1, §2, §3
(§7) Soil was put into a 1/300,000 ha pot, and seeds of barnyardgrass (Echinochloa crus-galli L.) were sown. […]
as §6

The test system is the same in assay [12]. As to the kind of experiment: Test Example 32: pot, soil treatment, metobromuron + chlorpropham. The settings on record: soil treatment, pot, 26th day after treatment, read-out: Growth inhibition rate of barnyardgrass (%) Measured value.
From the text: as §1, §2, §3, §5, §6

In assay [13] the test system is black nightshade (Solanum nigrum L.). As to the kind of experiment: Test Example 17: pot, soil treatment, metobromuron + chlorpropham. The settings on record: soil treatment, pot, 21st day after treatment, read-out: Growth inhibition rate of black nightshade (%) Measured value.
From the text: as §1, §2, §3, §5
(§8) On the 21st day after treatment, the state of growth of barnyardgrass was visually observed and evaluated in the same manner as in Test Example 1.
The test was carried out in the same manner as in Test Example 15 except that barnyardgrass (Echinochloa crus-galli L.) was changed to black nightshade (Solanum nigrum L.), to obtain the results as shown in Table 18.

In assay [14] the test system is barnyardgrass (Echinochloa crus-galli L.). As to the kind of experiment: Test Example 15: pot, soil treatment, metobromuron + chlorpropham. The settings on record: 750 g/ha, soil treatment, pot, 21st day after treatment, read-out: Growth inhibition rate of barnyardgrass (%) Measured value.
From the text: as §1, §2, §3, §7, §8

Assay [15] has as its system giant foxtail (Setaria faberi Herrm.). As to the kind of experiment: Test Example 16: pot, soil treatment, metobromuron + chlorpropham. The following applies: soil treatment, pot, 21st day after treatment, read-out: Growth inhibition rate of giant foxtail (%) Measured value.
From the text: as §1, §2, §3, §5, §8
The test was carried out in the same manner as in Test Example 15 except that barnyardgrass (Echinochloa crus-galli L.) was changed to giant foxtail (Setaria faberi Herrm.), to obtain the results as shown in Table 17.

Assay [16] relates to barnyardgrass (Echinochloa crus-qalli L.). As to the kind of experiment: Test Example 1: soybean field, soil treatment, metobromuron + chlorpropham. The following applies: 916 g/ha, soil treatment, soybean field, 19th day after treatment, read-out: Growth inhibition rate of barnyardgrass (%) Measured value. An excerpt:
When the herbicidal activity in a case where two active ingredients are combined, is larger than the simple sum of the respective herbicidal activities of the two active ingredients (the expected activity), it is called a synergistic effect. The activity expected by the combination of two active ingredients can be calculated as follows (Colby S. R., “Weed”, vol. 15, p. 20-22, 1967). E=α+β−(α×β[…]) where α: growth inhibition rate when treated with x (g/ha) of herbicide X, • β: growth inhibition rate when treated with y (g/ha) of herbicide Y, • E: growth inhibition rate expected when treated with x (g/ha) of herbicide X and y (g/ha) of herbicide Y. […]
On the 19th day after treatment, the state of growth of barnyardgrass was visually observed and evaluated in accordance with the following standards. The growth inhibition rate (%) [measured value] and the growth inhibition rate (%) [calculated value] calculated by the Colby's method, are shown in Table 2. […]

The text below walks through data of patent US9993001B2, “Herbicidal composition” (ISHIHARA SANGYO KAISHA, LTD., priority 2014, dated 2018).

A word on the inhibition: it is the share of the control response that was lost under treatment. `CCC(CC)Nc1c([N+](=O)[O-])cc(C)c(C)c1[N+](=O)[O-]` [Pendimethalin, N-(1-ethylpropyl)-2,6-dinitro-3,4-xylidine]: the inhibition at 62.5 g/ha in assay [1] came to 70%. Also, in the assay with polygonaceae weeds, the inhibition at 600 g/ha is 73%.

On to `COc1cc(OC)nc(NC(=O)NS(=O)(=O)c2ncccc2C(=O)N(C)C)n1` [Nicosulfuron, 2-[(4,6-dimethoxypyrimidin-2-ylcarbamoyl)sulfamoyl]-N,N-dimethyl nicotinamide], for which the results for the inhibition at 30 g/ha in assay [2] and in [3] were 10% and 55%, respectively.

Consider `CCc1cccc(C)c1N(C(=O)CCl)[C@@H](C)COC` [S-Metolachlor, 2-chloro-N-(6-ethyl-o-tolyl)-N-[(1S)-2-methoxy-1-methylethyl]acetamide], for which the inhibition at 1000 g/ha in assay [4] was 75%; in assay [5] it was 69%; in assay [6], 10%; in [7], 59%; in assay [8] it was 45%.

As for `CC(C)OC(=O)Nc1cccc(Cl)c1` [Chlorpropham, isopropyl 3-chlorocarbanilate], the inhibition at 125 g/ha in [9] (125 g/ha) turned out to be 20%; in [12] (125 g/ha) it was 10%. Also, the results for the inhibition at 250 g/ha in assay [9] (250 g/ha), in assay [10] and in [12] (250 g/ha) were 30%, 10% and 0%, respectively. In addition, the inhibition at 1000 g/ha in assay [9] (1000 g/ha) worked out at 50%; in assay [13] (1000 g/ha), 0%; in [15] (1000 g/ha) it was 0%. The inhibition at 500 g/ha in assay [11] and in [12] (500 g/ha) was 70% in each case. Further, the inhibition at 750 g/ha in assay [13] (750 g/ha), in [14] and in [15] (750 g/ha) was 0% each time. In addition, the inhibition at 916 g/ha in assay [16] turned out to be 8%.
